Measured values taken from patent US20080045796A1, “HISTOFLUORESCENT STAIN COMPOSITION FOR ENDOSCOPY” (PENTAX CORPORATION, priority 2006, published 2008).

Key:
[1] = Measurement of absorption spectrum and fluorescence excitation spectrum; assay type: physicochemical; settings: for maximum absorption wavelength: 1.0 mg/ml, spectrophotometer 200 to 750 nm; for maximum excitation wavelength / maximum fluorescence wavelength: fluorescence spectrophotometer
Method: Measurement of an absorption spectrum and a fluorescence excitation spectrum of Fast Green FCF was performed. The Fast Green FCF (Wako Pure Chemical Industries, Ltd.) was adjusted to 1.0 mg/ml, and the light absorbance was continuously measured at a wavelength of from 200 to 750 nm using a spectrophotometer (manufactured by Shimadzu Corp., BioSpec-1600) to determine the wavelength at which the absorbance reached the maximum. The maximum absorption wavelength of 628 nm thus obtained was irradiated as an excitation wavelength, and the wavelength of the scattered light detected in the perpendicular direction to the light axis of the excitation light was measured using a fluorescence spectrophotometer (manufactured by Shimadzu Corp., RF-1500), thus to obtain a maximum excitation wavelength of 628 nm and a maximum fluorescence wavelength of 652 nm.

mouse large intestine = assay: Tissue staining by perfusion method, confocal observation of extracted large intestine specimen; settings: 1 mg/mL with physiological saline
Method: IndoCyanine Green (adjusted to 1 mg/mL with physiological saline), which is a medical contrast agent, was used to perform tissue staining. Mouse large intestine was stained by a perfusion method, and observation of an extracted specimen of the large intestine was performed using a confocal microscope (Leica Microsystems Corp., TCP-SP2).

gastrointestinal lumen = assay: Perfusion through the heart with Guinea Green, observation of a frozen section; assay type: in vivo, mouse; settings: 10 mg/mL, 600 μL perfused through the heart
Method: The gastrointestinal lumen was stained using Guinea Green, and the stainability was examined by observation of a frozen section.
Guinea Green (Sigma-Aldrich Corp., Guinea Green B) was prepared to 10 mg/mL with physiological saline, and was perfused through the heart of a mouse (ddY, 6 weeks old, male) in an amount of 600 μL.
Also, it was compared with another frozen section used to perform HE staining, and the sites capable of fluorescent observation by Guinea Green staining were characterized.
(§1) A confocal microscope was used for the observation, which was made at 20, 40 or 63 magnifications.

[2] = tested on: esophagus part of a mouse; assay: Extracted esophagus stained, confocal microscope observation; settings: 10 mg/mL, pH 7
Method: The esophagus part of a mouse (ddY, 11 weeks old, male) was extracted, stained using Brilliant Blue FCF, and observed with a confocal microscope (Leica Microsystems Corp., TCP-SP2).
The Brilliant Blue FCF used was prepared to 10 mg/mL using a 0.1 M sodium phosphate buffer solution (pH 7).
The imaging conditions were such that the pinhole diameter was 1.00 airy, and a lens of 20 magnifications was used.

large intestine = assay: Perfusion through the heart with Patent Blue, confocal observation of large intestine specimen and frozen section; assay type: in vivo, mouse
Method: Patent Blue was used for staining and observation with a confocal microscope. Patent Blue (Sigma-Aldrich Corp., Patent Blue VF) was prepared to 10 mg/mL with physiological saline, and was perfused through the heart of a mouse (ddY, 6 weeks old, male) to perform staining.
The mouse was subjected to laparotomy to extract the large intestine, and an observation was made for a specimen with a confocal system.
The imaging conditions were such that a lens of 20 magnifications was used, and the pinhole diameter was 1.00 airy. As the confocal microscope, TCP-SP2 manufactured by Leica Microsystems Corp. was used.
A frozen section prepared by slicing the mouse large intestine stained in Example 9 to approximately 6 μm was observed under fluorescence to observe the stainability. An adjacent frozen section was used to perform HE staining and was compared to characterize the sites where fluorescent observation was possible by Patent Blue staining.
as §1

Row | can be excited at, for example [1] | fluorescence detected at [1] | maximum absorption wavelength [1] | maximum excitation wavelength [1] | maximum fluorescence wavelength [1] | Molecule | fluorescence intensity (fluorescence spectrum) ([1]; compared with Fast Green FCF, FIG. 2) | fluorescence intensity inside the tissue (mouse large intestine) | fluorescence of frozen section (gastrointestinal lumen) | observation capability of the confocal system (gastrointestinal lumen) | fluorescent contrast in confocal images [2] | depth from the luminal surface of clear images ([2]; images at every 5.0 μm) | staining visible by naked eyes (large intestine; 10 mg/mL, 600 μL perfused through the heart) | fluorescence of frozen section (large intestine; approximately 6 μm frozen section) | confocal observation of the tissue (large intestine; area 60 μm deep from the luminal surface) | observation capability (large intestine; frozen section under fluorescence)
1 | 633 nm | 643 nm | 630 nm | 633 nm | 643 nm | CCN(Cc1cccc(S(=O)(=O)O)c1)c1ccc(C(=C2C=CC(=[N+](CC)Cc3cccc(S(=O)(=O)O)c3)C=C2)c2ccccc2S(=O)(=O)[O-])cc1.N.N [Alphazurine FG] | – | – | – | – | – | – | – | – | – | –
2 | 633 nm | 652 nm | 635 nm | 633 nm | 652 nm | CCN(Cc1cccc(S(=O)(=O)O)c1)c1ccc(C(=C2C=CC(=[N+](CC)Cc3cccc(S(=O)(=O)O)c3)C=C2)c2ccc(S(=O)(=O)O)cc2)cc1.[Na+].[Na+] [Light Green SF] | – | – | – | – | – | – | – | – | – | –
3 | – | – | – | – | – | CC1(C)C(/C=C/C=C/C=C/C=C2\N(CCCCS(=O)(=O)O)c3ccc4ccccc4c3C2(C)C)=[N+](CCCCS(=O)(=O)[O-])c2ccc3ccccc3c21 [IndoCyanine Green, reference compound] | the fluorescence intensity is lower than that of the Fast Green FCF | the fluorescence intensity was very low | – | – | – | – | – | – | – | –
4 | 624 nm | 635 nm | 620 nm | 624 nm | 635 nm | CCN(Cc1cccc(S(=O)(=O)[O-])c1)c1ccc(C(=C2C=CC(=[N+](CC)Cc3cccc(S(=O)(=O)[O-])c3)C=C2)c2ccccc2)cc1.[Na+] [Guinea Green B] | – | – | the lumen side exhibited strong fluorescence | high | – | – | – | – | – | –
5 | 629 nm | 650 nm | 629 nm | 619 nm | 650 nm | CCN(Cc1cccc(S(=O)(=O)[O-])c1)c1ccc(C(=C2C=CC(=[N+](CC)Cc3cccc(S(=O)(=O)[O-])c3)C=C2)c2ccccc2S(=O)(=O)[O-])cc1.[Na+].[Na+] [Brilliant Blue FCF] | – | – | – | – | provide fluorescent contrast for the intercellular space of the esophagus epithelial cells | up to 100 μm | – | – | – | –
6 | 641 nm | 654 nm | 639 nm | 641 nm | 654 nm | Patent Blue VF | – | – | – | – | – | – | the limbs were bluish in color to the extent of being visible by naked eyes | strong fluorescence in the lumen | the lamina propria mucosae could be observed clear | high
